Data reported in USRE48253E1, “Methotrexate adjuvants to reduce toxicity and methods for using the same” (Tosk, Inc., priority 2008, dated 2020).

Assays:
[1] = tested on: AS283 human lymphoma xenografts; test: Mouse Study V: xenograft with AS283 implants; type: in vivo, C.B.-17 SCID mice; details: p=1.0
Procedure: Six-week-old male SCID mice were implanted with fragments of AS283 human lymphoma tumors. The tumors were allowed to reach 75-198 mg in weight (75-198 mm^3 in size) before the start of treatment. The experiment consisted of two treatment groups and one vehicle-treated control group, with ten animals per group, for a total of 30 mice on the first day of treatment.
TK-112690 was administered by ip injection [twice every 2 days for 5 injections with six hour interval (q6h×2, q2d×5)] at a dosage of 30 mg/kg/injection. MTX was administered by ip injection q2d×5 at a dosage of 5.0 mg/kg/injection three hours after the TK-112690 injection. The control group was treated with both vehicles, which were administered on the corresponding compound schedules.
Six-week-old male C.B.-17 SCID mice were acclimated in the laboratories for seven days prior to experimentation. Thirty-to-forty mg fragments of AS283 human lymphoma tumor were implanted sc in mice near the right flank using a 12-gauge trocar needle and allowed to grow. […]
The sc tumors were measured and the animals were weighed thrice weekly starting the day of the first treatment. Tumor volume was determined by caliper measurements (mm) and using the formula for an ellipsoid sphere: L×W^2/2=mm^3, where L and W refer to the larger and smaller perpendicular dimensions collected at each measurement. […]

[2] = tested on: C57BL/6 mice; test: Mouse Study I: protection from MTX-induced weight loss (LPS/MTX model); type: in vivo; details: 10 or 30 mg/kg ip 3 hr before and after MTX; LPS+MTX treated mice
Procedure: C57BL/6 mice (10 animals/treatment group) were dosed on Day 1 with LPS (5 μg, i.p.). On Day 2, the animals were treated with 200 mg/kg MTX+10 or 30 mg/kg TK-112690 3 hr before and 3 hr after the MTX treatment. On Day 3, the animals were dosed MTX 100 mg/kg+10 or 30 mg/kg TK±3 hr. On day 8, the Day 8-Day 1 weight was determined and results subject to ANOVA. Group 1=saline alone, Group 2=MTX alone, Group 3=LPS alone, Group 4=MTX+LPS, Group 5=10 mg/kg TK-112690+MTX+LPS or Group 6=30 mg/kg TK-112690+MTX+LPS.
This mouse model is modified from a published procedure (de Koning et al., Int Immunol 18: 941 (2006)). Mice are treated on day one with a single intraperitoneal (ip) dose of lipopolysaccharide (LPS), followed by two consecutive days with 200 and 100 mg/kg ip methotrexate, respectively. Controls include saline alone for days 1, 2, and 3, saline on day 1 plus MTX on days 2 and 3 and LPS on day one with saline injection on days 2 and 3. Experimental groups are given LPS on day one and 10 or 30 mg/kg, TK-112690, a representative 2,2′-anhydropyrimidine test article, ip 3 hours before, and 3 hours after, methotrexate injection on days 2 and 3. Animal weights are measured every day after the first injection with experiment termination five days after the second methotrexate injection (day 8). Weight loss is representative of MTX-induced toxicity, and one aspect of MTX-induced mucositis. […]

## Cc1cn2c(nc1=O)O[C@H]1[C@H](O)[C@@H](CO)O[C@H]12 [TK-112690, 2,2′-anhydro-5-methyluridine]
[1]
  tumor volumes Day 21, MTX+TK-112690 vs MTX: no statistical difference
[2]
  protection from MTX-induced weight loss (Day 8-Day 1 weight): highly significant
